Laboratory results as given in paper PMC6081437, “The potency of the broad spectrum bacteriocin, bactofencin A, against staphylococci is highly dependent on primary structure, N-terminal charge and disulphide formation” (Scientific Reports, 2018).
Bridge positions count the residues as written; N and C are the ends. Square brackets hold non-standard residues; d marks the D form. Peptide text beside a SMILES is read from it.

Test system: S. aureus DPC5246
Type: cell-based, Staphylococcus aureus
Settings: for Activity (Minimum Inhibitory Concentration, MIC): DPC5246, pH 6.8
Description: Peptides were resuspended at 1000 µM in 50 mM sodium phosphate buffer pH 6.8 and checked for purity by MALDI-TOF-MS. Peptides were serially diluted 1 in 4 to give a dilution series of 250, 62.50, 15.63, 3.91, 0.98 and 0.24 µM and assayed by the agar well diffusion assay described by Ryan et al.[19]. Briefly, 50 µl aliquots of each peptide concentration were plated on a S. aureus DPC5246 indicator plate and the plate incubated at 37 °C. Peptide activity (Minimum Inhibitory Concentration (MIC)) was taken as the lowest concentration of peptide to give a zone of inhibition. All assays were performed in triplicate. The dilution series values were rounded to the nearest whole number to give 1000, 250, 63, 16, 4, 1 and 0.25 µM and data is colour coded for ease of interpretation.

Activity (Minimum Inhibitory Concentration, MIC)	SMILES	fold reduction in activity compared with bactofencin A (wild type) (S. aureus DPC5246, agar well diffusion MIC)
16 µM	CSCC[C@@H]1NC(=O)CNC(=O)[C@H]([C@@H](C)O)NC(=O)[C@@H]2CCCN2C(=O)[C@H](CCSC)NC(=O)CNC(=O)[C@H](CC(N)=O)NC(=O)[C@H](CC(N)=O)NC(=O)[C@H](Cc2ccc(O)cc2)NC(=O)[C@H](C(C)C)NC(=O)[C@H](CCCNC(=N)N)NC(=O)[C@H](NC(=O)[C@H](CCCNC(=N)N)NC(=O)[C@H](Cc2c[nH]cn2)NC(=O)[C@H](CCCCN)NC(=O)[C@H](CCCCN)NC(=O)[C@H](CCCNC(=N)N)NC(=O)[C@@H](N)CCCCN)CSSC[C@@H](C(=O)O)NC(=O)[C@H](Cc2c[nH]c3ccccc23)NC(=O)[C@H](CCCNC(=N)N)NC(=O)[C@H](Cc2ccc(O)cc2)NC1=O [C7Cd] (H-KRKKHR[dC]RVYNNGMPTGMYRWC-OH; disulfide 7-22; N-terminus assumed)	–
16 µM	CSCC[C@@H]1NC(=O)CNC(=O)[C@H](CC(N)=O)NC(=O)[C@H](CC(N)=O)NC(=O)[C@H](Cc2ccc(O)cc2)NC(=O)[C@H](C(C)C)NC(=O)[C@H](CCCNC(=N)N)NC(=O)[C@@H](NC(=O)[C@H](CCCNC(=N)N)NC(=O)[C@H](Cc2c[nH]cn2)NC(=O)[C@H](CCCCN)NC(=O)[C@H](CCCCN)NC(=O)[C@H](CCCNC(=N)N)NC(=O)[C@@H](N)CCCCN)CSSC[C@@H](C(=O)O)NC(=O)[C@H](Cc2c[nH]c3ccccc23)NC(=O)[C@H](CCCNC(=N)N)NC(=O)[C@H](Cc2ccc(O)cc2)NC(=O)[C@@H](CCSC)NC(=O)CNC(=O)[C@H]([C@@H](C)O)NC(=O)[C@@H]2CCCN2C1=O [M18Md] (H-KRKKHRCRVYNNGMPTG[dM]YRWC-OH; disulfide 7-22; N-terminus assumed)	–
1 µM	CSCC[C@@H]1NC(=O)CNC(=O)[C@H]([C@@H](C)O)NC(=O)[C@@H]2CCCN2C(=O)[C@H](CCSC)NC(=O)CNC(=O)[C@H](CC(N)=O)NC(=O)[C@H](CC(N)=O)NC(=O)[C@H](Cc2ccc(O)cc2)NC(=O)[C@H](C(C)C)NC(=O)[C@H](CCCNC(=N)N)NC(=O)[C@@H](NC(=O)[C@H](CCCNC(=N)N)NC(=O)[C@H](Cc2c[nH]cn2)NC(=O)[C@H](CCCCN)NC(=O)[C@H](CCCCN)NC(=O)[C@H](C)NC(=O)[C@@H](N)CCCCN)CSSC[C@@H](C(=O)O)NC(=O)[C@H](Cc2c[nH]c3ccccc23)NC(=O)[C@H](CCCNC(=N)N)NC(=O)[C@H](Cc2ccc(O)cc2)NC1=O [R2A] (H-KAKKHRCRVYNNGMPTGMYRWC-OH; disulfide 7-22)	–
16 µM	CSCC[C@@H]1NC(=O)CNC(=O)[C@H]([C@@H](C)O)NC(=O)[C@@H]2CCCN2C(=O)[C@H](CCSC)NC(=O)[C@H](C)NC(=O)[C@H](CC(N)=O)NC(=O)[C@H](CC(N)=O)NC(=O)[C@H](Cc2ccc(O)cc2)NC(=O)[C@H](C(C)C)NC(=O)[C@H](CCCNC(=N)N)NC(=O)[C@@H](NC(=O)[C@H](CCCNC(=N)N)NC(=O)[C@H](Cc2c[nH]cn2)NC(=O)[C@H](CCCCN)NC(=O)[C@H](CCCCN)NC(=O)[C@H](CCCNC(=N)N)NC(=O)[C@@H](N)CCCCN)CSSC[C@@H](C(=O)O)NC(=O)[C@H](Cc2c[nH]c3ccccc23)NC(=O)[C@H](CCCNC(=N)N)NC(=O)[C@H](Cc2ccc(O)cc2)NC1=O [G13A] (H-KRKKHRCRVYNNAMPTGMYRWC-OH; disulfide 7-22)	–
4 µM	CSCC[C@@H]1NC(=O)CNC(=O)[C@H]([C@@H](C)O)NC(=O)[C@@H]2CCCN2C(=O)[C@H](CCSC)NC(=O)CNC(=O)[C@H](CC(N)=O)NC(=O)[C@H](CC(N)=O)NC(=O)[C@H](Cc2ccc(O)cc2)NC(=O)[C@H](C)NC(=O)[C@H](CCCNC(=N)N)NC(=O)[C@@H](NC(=O)[C@H](CCCNC(=N)N)NC(=O)[C@H](Cc2c[nH]cn2)NC(=O)[C@H](CCCCN)NC(=O)[C@H](CCCCN)NC(=O)[C@H](CCCNC(=N)N)NC(=O)[C@@H](N)CCCCN)CSSC[C@@H](C(=O)O)NC(=O)[C@H](Cc2c[nH]c3ccccc23)NC(=O)[C@H](CCCNC(=N)N)NC(=O)[C@H](Cc2ccc(O)cc2)NC1=O [V9A] (H-KRKKHRCRAYNNGMPTGMYRWC-OH; disulfide 7-22)	–
4 µM	CSCC[C@@H]1NC(=O)CNC(=O)[C@H]([C@@H](C)O)NC(=O)[C@@H]2CCCN2C(=O)[C@H](CCSC)NC(=O)CNC(=O)[C@H](CC(N)=O)NC(=O)[C@H](CC(N)=O)NC(=O)[C@H](Cc2ccc(O)cc2)NC(=O)[C@H](C(C)C)NC(=O)[C@H](CCCNC(=N)N)NC(=O)[C@@H](NC(=O)[C@H](CCCNC(=N)N)NC(=O)[C@H](Cc2c[nH]cn2)NC(=O)[C@H](CCCCN)NC(=O)[C@H](CCCCN)NC(=O)[C@H](CCCNC(=N)N)NC(=O)[C@@H](N)CCCCN)CSSC[C@H](C(=O)O)NC(=O)[C@H](Cc2c[nH]c3ccccc23)NC(=O)[C@H](CCCNC(=N)N)NC(=O)[C@H](Cc2ccc(O)cc2)NC1=O [C22Cd] (H-KRKKHRCRVYNNGMPTGMYRW[dC]-OH; disulfide 7-22; N-terminus assumed)	–
4 µM	CSCC[C@@H]1NC(=O)CNC(=O)[C@H]([C@@H](C)O)NC(=O)[C@@H]2CCCN2C(=O)[C@H](CCSC)NC(=O)CNC(=O)[C@H](CC(N)=O)NC(=O)[C@H](CC(N)=O)NC(=O)[C@H](C)NC(=O)[C@H](C(C)C)NC(=O)[C@H](CCCNC(=N)N)NC(=O)[C@@H](NC(=O)[C@H](CCCNC(=N)N)NC(=O)[C@H](Cc2c[nH]cn2)NC(=O)[C@H](CCCCN)NC(=O)[C@H](CCCCN)NC(=O)[C@H](CCCNC(=N)N)NC(=O)[C@@H](N)CCCCN)CSSC[C@@H](C(=O)O)NC(=O)[C@H](Cc2c[nH]c3ccccc23)NC(=O)[C@H](CCCNC(=N)N)NC(=O)[C@H](Cc2ccc(O)cc2)NC1=O [Y10A] (H-KRKKHRCRVANNGMPTGMYRWC-OH; disulfide 7-22)	–
1 µM	CSCC[C@@H]1NC(=O)CNC(=O)[C@H]([C@@H](C)O)NC(=O)[C@@H]2CCCN2C(=O)[C@H](CCSC)NC(=O)CNC(=O)[C@H](CC(N)=O)NC(=O)[C@H](CC(N)=O)NC(=O)[C@H](Cc2ccc(O)cc2)NC(=O)[C@H](C(C)C)NC(=O)[C@H](CCCNC(=N)N)NC(=O)[C@@H](NC(=O)[C@H](CCCNC(=N)N)NC(=O)[C@H](C)NC(=O)[C@H](CCCCN)NC(=O)[C@H](CCCCN)NC(=O)[C@H](CCCNC(=N)N)NC(=O)[C@@H](N)CCCCN)CSSC[C@@H](C(=O)O)NC(=O)[C@H](Cc2c[nH]c3ccccc23)NC(=O)[C@H](CCCNC(=N)N)NC(=O)[C@H](Cc2ccc(O)cc2)NC1=O [H5A] (H-KRKKARCRVYNNGMPTGMYRWC-OH; disulfide 7-22)	–
63 µM	CSCC[C@@H]1NC(=O)CNC(=O)[C@H]([C@@H](C)O)NC(=O)[C@@H]2CCCN2C(=O)[C@@H](CCSC)NC(=O)CNC(=O)[C@H](CC(N)=O)NC(=O)[C@H](CC(N)=O)NC(=O)[C@H](Cc2ccc(O)cc2)NC(=O)[C@H](C(C)C)NC(=O)[C@H](CCCNC(=N)N)NC(=O)[C@@H](NC(=O)[C@H](CCCNC(=N)N)NC(=O)[C@H](Cc2c[nH]cn2)NC(=O)[C@H](CCCCN)NC(=O)[C@H](CCCCN)NC(=O)[C@H](CCCNC(=N)N)NC(=O)[C@@H](N)CCCCN)CSSC[C@@H](C(=O)O)NC(=O)[C@H](Cc2c[nH]c3ccccc23)NC(=O)[C@H](CCCNC(=N)N)NC(=O)[C@H](Cc2ccc(O)cc2)NC1=O [M14Md] (H-KRKKHRCRVYNNG[dM]PTGMYRWC-OH; disulfide 7-22; N-terminus assumed)	63 fold
1 µM	CSCC[C@@H]1NC(=O)CNC(=O)[C@H](CC(N)=O)NC(=O)[C@H](CC(N)=O)NC(=O)[C@H](Cc2ccc(O)cc2)NC(=O)[C@H](C(C)C)NC(=O)[C@H](CCCNC(=N)N)NC(=O)[C@@H](NC(=O)[C@H](CCCNC(=N)N)NC(=O)[C@H](Cc2c[nH]cn2)NC(=O)[C@H](CCCCN)NC(=O)[C@H](CCCCN)NC(=O)[C@H](CCCNC(=N)N)NC(=O)[C@@H](N)CCCCN)CSSC[C@@H](C(=O)O)NC(=O)[C@H](Cc2c[nH]c3ccccc23)NC(=O)[C@H](CCCNC(=N)N)NC(=O)[C@H](Cc2ccc(O)cc2)NC(=O)[C@H](C)NC(=O)CNC(=O)[C@H]([C@@H](C)O)NC(=O)[C@@H]2CCCN2C1=O [M18A] (H-KRKKHRCRVYNNGMPTGAYRWC-OH; disulfide 7-22)	–
16 µM	CSCC[C@@H]1NC(=O)CNC(=O)[C@H]([C@@H](C)O)NC(=O)[C@@H]2CCCN2C(=O)[C@H](C)NC(=O)CNC(=O)[C@H](CC(N)=O)NC(=O)[C@H](CC(N)=O)NC(=O)[C@H](Cc2ccc(O)cc2)NC(=O)[C@H](C(C)C)NC(=O)[C@H](CCCNC(=N)N)NC(=O)[C@@H](NC(=O)[C@H](CCCNC(=N)N)NC(=O)[C@H](Cc2c[nH]cn2)NC(=O)[C@H](CCCCN)NC(=O)[C@H](CCCCN)NC(=O)[C@H](CCCNC(=N)N)NC(=O)[C@@H](N)CCCCN)CSSC[C@@H](C(=O)O)NC(=O)[C@H](Cc2c[nH]c3ccccc23)NC(=O)[C@H](CCCNC(=N)N)NC(=O)[C@H](Cc2ccc(O)cc2)NC1=O [M14A] (H-KRKKHRCRVYNNGAPTGMYRWC-OH; disulfide 7-22)	–
4 µM	CSCC[C@@H]1NC(=O)CNC(=O)[C@H]([C@@H](C)O)NC(=O)[C@@H]2CCCN2C(=O)[C@H](CCSC)NC(=O)CNC(=O)[C@H](CC(N)=O)NC(=O)[C@H](CC(N)=O)NC(=O)[C@H](Cc2ccc(O)cc2)NC(=O)[C@H](C(C)C)NC(=O)[C@H](CCCNC(=N)N)NC(=O)[C@@H](NC(=O)[C@H](CCCNC(=N)N)NC(=O)[C@H](Cc2c[nH]cn2)NC(=O)[C@H](CCCCN)NC(=O)[C@H](CCCCN)NC(=O)[C@H](CCCNC(=N)N)NC(=O)[C@@H](N)CCCCN)CSSC[C@@H](C(=O)O)NC(=O)[C@H](Cc2c[nH]c3ccccc23)NC(=O)[C@@H](CCCNC(=N)N)NC(=O)[C@H](Cc2ccc(O)cc2)NC1=O [R20Rd] (H-KRKKHRCRVYNNGMPTGMY[dR]WC-OH; disulfide 7-22; N-terminus assumed)	–
